From patent publication US20250059182A1, “SOS1 INHIBITORS” (Mirati Therapeutics, Inc., priority 2021, published 2025)

How the values were obtained:
pERK in MKN1 cells = test: pERK inhibition, In-Cell Western (LI-COR Odyssey), MKN1 cells; assay type: cell-based; settings: Homo sapiens, MKN-1, Table B; MKN1 or H358 cells (table does not say which); 0.5-1 hour incubation; read-out: IC50 (nM), pERK inhibition
Method in brief: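 MKN1 cells were exposed for about 0.5–1 h at 37 °C to nine 3-fold dilutions starting at 10 µM. Cells were then fixed in formaldehyde, permeabilised with methanol, and immunostained for pERK and GAPDH with near-infrared secondary antibodies. GAPDH-normalised pERK signal relative to vehicle gave % inhibition, from which IC50 was fitted.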

[1] = molecular target: T1, recombinant human SOS1 polypeptide (amino acids 560-1049) (Homo sapiens, UniProt Q07889); test: HTRF displacement assay: inhibition of labeled tracer binding to SOS1; settings: Table A, Morrison equation for competitive binding
T1 construct: corresponding to amino acids 560-1049, expressed in E. Coli; made in house; host or cells: E. coli
T1 sequence (Q07889 560-1049): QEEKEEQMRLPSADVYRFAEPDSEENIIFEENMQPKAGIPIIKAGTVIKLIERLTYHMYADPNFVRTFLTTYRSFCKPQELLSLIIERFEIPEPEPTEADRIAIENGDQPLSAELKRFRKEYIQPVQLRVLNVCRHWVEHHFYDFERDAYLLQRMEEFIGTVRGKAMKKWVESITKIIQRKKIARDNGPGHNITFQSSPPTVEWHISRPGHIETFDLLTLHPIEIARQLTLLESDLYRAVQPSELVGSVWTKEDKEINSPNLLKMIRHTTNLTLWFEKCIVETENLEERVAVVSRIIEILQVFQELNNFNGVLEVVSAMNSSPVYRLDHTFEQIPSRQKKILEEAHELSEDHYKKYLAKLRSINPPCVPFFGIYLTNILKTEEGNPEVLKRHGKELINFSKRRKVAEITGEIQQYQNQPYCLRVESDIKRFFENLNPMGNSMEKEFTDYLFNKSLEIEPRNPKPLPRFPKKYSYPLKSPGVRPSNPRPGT

SMILES	IC50 (pERK in MKN1 cells) [nM]	Ki [1] [nM]
Cc1c(C#N)cccc1[C@@H](C)Nc1nnc(C)c2cnc(N(C)C[C@@H]3CCCN3C)cc12 [Example 1-57, 2-methyl-3-((R)-1-((4-methyl-7-(methyl(((S)-1-methylpyrrolidin-2-yl)methyl)amino)pyrido[3,4-d]pyridazin-1-yl)amino)ethyl)benzonitrile]	39.2	1.59
Cc1c(C#N)cccc1[C@@H](C)Nc1nnc(C)c2cnc(N(C)C[C@H]3CCCN3C)cc12 [Example 1-58, 2-methyl-3-((R)-1-((4-methyl-7-(methyl(((R)-1-methylpyrrolidin-2-yl)methyl)amino)pyrido[3,4-d]pyridazin-1-yl)amino)ethyl)benzonitrile]	73.8	1.89
COCCN1CC2(C1)CN(c1cc3c(N[C@H](C)c4cccc(C#N)c4C)nnc(C)c3cn1)C2 [Example 1-59, (R)-3-(1-((7-(6-(2-methoxyethyl)-2,6-diazaspiro[3.3]heptan-2-yl)-4-methylpyrido[3,4-d]pyridazin-1-yl)amino)ethyl)-2-methylbenzonitrile]	37.6	0.977
CCOCCN1CC2(C1)CN(c1cc3c(N[C@H](C)c4cccc(C#N)c4C)nnc(C)c3cn1)C2 [Example 1-60, (R)-3-(1-((7-(6-(2-ethoxyethyl)-2,6-diazaspiro[3.3]heptan-2-yl)-4-methylpyrido[3,4-d]pyridazin-1-yl)amino)ethyl)-2-methylbenzonitrile]	39.9	0.93
Cc1c(C#N)cccc1[C@@H](C)Nc1nnc(C)c2cnc(N3CC4(CN(CCO)C4)C3)cc12 [Example 1-61, (R)-3-(1-((7-(6-(2-hydroxyethyl)-2,6-diazaspiro[3.3]heptan-2-yl)-4-methylpyrido[3,4-d]pyridazin-1-yl)amino)ethyl)-2-methylbenzonitrile]	1340	0.797
Cc1c(C#N)cccc1[C@@H](C)Nc1nnc(C)c2cnc(N3CC4(C3)CN(C(C)C)C4)cc12 [Example 1-62, (R)-3-(1-((7-(6-isopropyl-2,6-diazaspiro[3.3]heptan-2-yl)-4-methylpyrido[3,4-d]pyridazin-1-yl)amino)ethyl)-2-methylbenzonitrile]	37.6	0.545
Cc1c(C#N)cccc1[C@@H](C)Nc1nnc(C)c2cnc(N3CC4(CC(N(C)C)C4)C3)cc12 [Example 1-63, (R)-3-(1-((7-(6-(dimethylamino)-2-azaspiro[3.3]heptan-2-yl)-4-methylpyrido[3,4-d]pyridazin-1-yl)amino)ethyl)-2-methylbenzonitrile]	48.9	0.664
Cc1c([C@@H](C)Nc2nnc(C)c3cnc(N(C)[C@H]4CCNC4)cc23)cccc1C(F)(F)F [Example 1-64, N^7,4-dimethyl-N^1-((R)-1-(2-methyl-3-(trifluoromethyl)phenyl)ethyl)-N^7-((S)-pyrrolidin-3-yl)pyrido[3,4-d]pyridazine-1,7-diamine]	66.3	0.246
Cc1nnc(N[C@H](C)c2cccc(C(F)(F)F)c2F)c2cc(N(C)[C@H]3CCNC3)ncc12 [Example 1-65, N^1-((R)-1-(2-fluoro-3-(trifluoromethyl)phenyl)ethyl)-N^7,4-dimethyl-N^7-((S)-pyrrolidin-3-yl)pyrido[3,4-d]pyridazine-1,7-diamine]	49.7	0.505
Cc1c([C@@H](C)Nc2nnc(C)c3cnc(N4CC5(CC(N(C)C)C5)C4)cc23)cccc1C(F)(F)F [Example 1-66, (R)-7-(6-(dimethylamino)-2-azaspiro[3.3]heptan-2-yl)-4-methyl-N-(1-(2-methyl-3-(trifluoromethyl)phenyl)ethyl)pyrido[3,4-d]pyridazin-1-amine]	32.4	0.106
Cc1c(C#N)cccc1[C@@H](C)Nc1nnc(C)c2cnc(N3CCN(C)C(C)(C)C3)cc12 [Example 1-69, (R)-2-methyl-3-(1-((4-methyl-7-(3,3,4-trimethylpiperazin-1-yl)pyrido[3,4-d]pyridazin-1-yl)amino)ethyl)benzonitrile]	39	0.849
Cc1c(C#N)cccc1[C@@H](C)Nc1nnc(C)c2cnc(N3CCN(C(C)C)CC3)cc12 [Example 1-70, (R)-3-(1-((7-(4-isopropylpiperazin-1-yl)-4-methylpyrido[3,4-d]pyridazin-1-yl)amino)ethyl)-2-methylbenzonitrile]	44.2	0.927
Cc1c(C#N)cccc1[C@@H](C)Nc1nnc(C)c2cnc(N(C)[C@H]3CCOC3)cc12 [Example 1-71, 2-methyl-3-((R)-1-((4-methyl-7-(methyl((S)-tetrahydrofuran-3-yl)amino)pyrido[3,4-d]pyridazin-1-yl)amino)ethyl)benzonitrile]	47.3	4.69
Cc1nnc(N[C@H](C)c2cccc(C(F)(F)F)c2F)c2cc(N(C)[C@H]3CCOC3)ncc12 [Example 1-72, N^1-((R)-1-(2-fluoro-3-(trifluoromethyl)phenyl)ethyl)-N^7,4-dimethyl-N^7-((S)-tetrahydrofuran-3-yl)pyrido[3,4-d]pyridazine-1,7-diamine]	118	1.74
Cc1nnc(N[C@H](C)c2cccc(C(F)(F)F)c2F)c2cc(N(C)[C@@H]3CCOC3)ncc12 [Example 1-73, N^1-((R)-1-(2-fluoro-3-(trifluoromethyl)phenyl)ethyl)-N^7,4-dimethyl-N^7-((R)-tetrahydrofuran-3-yl)pyrido[3,4-d]pyridazine-1,7-diamine]	54.8	1.16
Cc1c(C#N)cccc1[C@@H](C)Nc1nnc(C)c2cnc(N(C)[C@@H]3CCOC3)cc12 [Example 1-74, 2-methyl-3-((R)-1-((4-methyl-7-(methyl((R)-tetrahydrofuran-3-yl)amino)pyrido[3,4-d]pyridazin-1-yl)amino)ethyl)benzonitrile]	39.9	2.34
Cc1nnc(N[C@H](C)c2cccc(C(F)(F)F)c2F)c2cc(N(C)[C@@H]3CCN(C(C)C)C3)ncc12 [Example 1-76, N^1-((R)-1-(2-fluoro-3-(trifluoromethyl)phenyl)ethyl)-N^7-((R)-1-isopropylpyrrolidin-3-yl)-N^7,4-dimethylpyrido[3,4-d]pyridazine-1,7-diamine]	119	0.367
Cc1nnc(N[C@H](C)c2cccc(C(F)(F)F)c2F)c2cc(N(C)[C@H]3CCN(C(C)C)C3)ncc12 [Example 1-77, N^1-((R)-1-(2-fluoro-3-(trifluoromethyl)phenyl)ethyl)-N^7-((S)-1-isopropylpyrrolidin-3-yl)-N^7,4-dimethylpyrido[3,4-d]pyridazine-1,7-diamine]	121	0.647
Cc1c(C#N)cccc1[C@@H](C)Nc1nnc(C)c2cnc(N(C)[C@H]3CCCN(C)C3)cc12 [Example 1-81, 2-methyl-3-((R)-1-((4-methyl-7-(methyl((S)-1-methylpiperidin-3-yl)amino)pyrido[3,4-d]pyridazin-1-yl)amino)ethyl)benzonitrile]	62.4	0.865
Cc1c(C#N)cccc1[C@@H](C)Nc1nnc(C)c2cnc(N(C)[C@@H]3CCCN(C)C3)cc12 [Example 1-82, 2-methyl-3-((R)-1-((4-methyl-7-(methyl((R)-1-methylpiperidin-3-yl)amino)pyrido[3,4-d]pyridazin-1-yl)amino)ethyl)benzonitrile]	85.2	1.16
Cc1nnc(N[C@H](C)c2cccc(C(F)(F)F)c2F)c2cc(N(C)C3CCN(C)CC3)ncc12 [Example 1-83, (R)-N^1-(1-(2-fluoro-3-(trifluoromethyl)phenyl)ethyl)-N^7,4-dimethyl-N^7-(1-methylpiperidin-4-yl)pyrido[3,4-d]pyridazine-1,7-diamine]	82.8	0.788
Cc1c(C#N)cccc1[C@@H](C)Nc1nnc(C)c2cnc(N3CCS(=N)(=O)CC3)cc12 [Example 1-84, (R)-3-(1-((7-(1-imino-1-oxido-thiomorpholino)-4-methylpyrido[3,4-d]pyridazin-1-yl)amino)ethyl)-2-methylbenzonitrile]	2730	2.34
Cc1nnc(N[C@H](C)c2cccc(C(F)(F)F)c2F)c2cc(N(C)[C@H]3CCCN(C)C3)ncc12 [Example 1-85, N^1-((R)-1-(2-fluoro-3-(trifluoromethyl)phenyl)ethyl)-N^7,4-dimethyl-N^7-((S)-1-methylpiperidin-3-yl)pyrido[3,4-d]pyridazine-1,7-diamine]	185	0.662
Cc1nnc(N[C@H](C)c2cccc(C(F)(F)F)c2F)c2cc(N3CC[C@@H](N(C)C)C3)ncc12 [Example 1-86, 7-((R)-3-(dimethylamino)pyrrolidin-1-yl)-N-((R)-1-(2-fluoro-3-(trifluoromethyl)phenyl)ethyl)-4-methylpyrido[3,4-d]pyridazin-1-amine]	50.8	0.372
Cc1nnc(N[C@H](C)c2cccc(C(F)(F)F)c2F)c2cc(N3CC4(CNC4)C3)ncc12 [Example 1-87, (R)-N-(1-(2-fluoro-3-(trifluoromethyl)phenyl)ethyl)-4-methyl-7-(2,6-diazaspiro[3.3]heptan-2-yl)pyrido[3,4-d]pyridazin-1-amine]	273	0.524
